According to paper PMC7385619, “A triple action CDK4/6-PI3K-BET inhibitor with augmented cancer cell cytotoxicity” (Cell Discovery, 2020):
Like-named read-outs stand apart in the source and are kept apart here.

How the values were obtained:
PI3Kγ = target: T1, PI3Kγ (Homo sapiens, UniProt P48736); test: In vitro kinase assay, PI3Kγ; assay type: biochemical; settings: Fig. 1b; italicized values from the literature (italics not visible)
T1 construct: purchased ThermoFisher Scientific

kinome (kinase panel) [1] = target: T2, kinome (kinase panel) (Homo sapiens, UniProt O15197); test: KINOMEscan assay (Eurofins DiscoverX); assay type: binding; settings: EPHB6; 1000 nM; read-out: Percent Control
T2 construct: purchased Eurofins DiscoverX

kinome (kinase panel) [2] = target: T3, kinome (kinase panel) (Homo sapiens, UniProt O15264); test: KINOMEscan assay (Eurofins DiscoverX); assay type: binding; settings: p38-delta (Entrez MAPK13); 1000 nM; read-out: Percent Control
T3 construct: purchased Eurofins DiscoverX

kinome (kinase panel) [3] = target: T4, kinome (kinase panel) (Homo sapiens, UniProt O75385); test: KINOMEscan assay (Eurofins DiscoverX); assay type: binding; settings: ULK1; 1000 nM; read-out: Percent Control
T4 construct: purchased Eurofins DiscoverX

kinome (kinase panel) [4] = target: T5, kinome (kinase panel) (Homo sapiens, UniProt O75676); test: KINOMEscan assay (Eurofins DiscoverX); assay type: binding; settings: 1000 nM, read-out: Percent Control
T5 construct: purchased Eurofins DiscoverX

kinome (kinase panel) [5] = target: T6, kinome (kinase panel) (Homo sapiens, UniProt P00519, E255K); test: KINOMEscan assay (Eurofins DiscoverX); assay type: binding; settings: read-out: Percent Control
T6 construct: purchased Eurofins DiscoverX

kinome (kinase panel) [6] = target: T7, kinome (kinase panel) (Homo sapiens, UniProt P15056); test: KINOMEscan assay (Eurofins DiscoverX); assay type: binding; settings: BRAF; 1000 nM; read-out: Percent Control
T7 construct: purchased Eurofins DiscoverX

kinome (kinase panel) [7] = target: T8, kinome (kinase panel) (Homo sapiens, UniProt P17612); test: KINOMEscan assay (Eurofins DiscoverX); assay type: binding; settings: PKAC-alpha (Entrez PRKACA); 1000 nM; read-out: Percent Control
T8 construct: purchased Eurofins DiscoverX

kinome (kinase panel) [8] = target: T9, kinome (kinase panel) (Homo sapiens, UniProt P24941); test: KINOMEscan assay (Eurofins DiscoverX); assay type: binding; settings: CDK2; 1000 nM; read-out: Percent Control
T9 construct: purchased Eurofins DiscoverX

kinome (kinase panel) [9] = target: T10, kinome (kinase panel) (Homo sapiens, UniProt P36888); test: KINOMEscan assay (Eurofins DiscoverX); assay type: binding; settings: 1000 nM, read-out: Percent Control
T10 construct: purchased Eurofins DiscoverX

kinome (kinase panel) [10] = target: T11, kinome (kinase panel) (Homo sapiens, UniProt P36888, D835H); test: KINOMEscan assay (Eurofins DiscoverX); assay type: binding; settings: […]; 1000 nM; read-out: Percent Control
T11 construct: purchased Eurofins DiscoverX

kinome (kinase panel) [11] = target: T12, kinome (kinase panel) (Homo sapiens, UniProt P36888, K663Q); test: KINOMEscan assay (Eurofins DiscoverX); assay type: binding; settings: […]; 1000 nM; read-out: Percent Control
T12 construct: purchased Eurofins DiscoverX

kinome (kinase panel) [12] = target: T13, kinome (kinase panel) (Homo sapiens, UniProt P48730); test: KINOMEscan assay (Eurofins DiscoverX); assay type: binding; settings: CSNK1D; 1000 nM; read-out: Percent Control
T13 construct: purchased Eurofins DiscoverX

kinome (kinase panel) [13] = target: T14, kinome (kinase panel) (Homo sapiens, UniProt P50750); test: KINOMEscan assay (Eurofins DiscoverX); assay type: binding; settings: CDK9; 1000 nM; read-out: Percent Control
T14 construct: purchased Eurofins DiscoverX

kinome (kinase panel) [14] = target: T15, kinome (kinase panel) (Homo sapiens, UniProt P54646); test: KINOMEscan assay (Eurofins DiscoverX); assay type: binding; settings: AMPK-alpha2 (Entrez PRKAA2); 1000 nM; read-out: Percent Control
T15 construct: purchased Eurofins DiscoverX

kinome (kinase panel) [15] = target: T16, kinome (kinase panel) (Homo sapiens, UniProt P57059); test: KINOMEscan assay (Eurofins DiscoverX); assay type: binding; settings: SIK (SIK1); 1000 nM; read-out: Percent Control
T16 construct: purchased Eurofins DiscoverX

kinome (kinase panel) [16] = target: T17, kinome (kinase panel) (Homo sapiens, UniProt Q04912); test: KINOMEscan assay (Eurofins DiscoverX); assay type: binding; settings: MST1R; 1000 nM; read-out: Percent Control
T17 construct: purchased Eurofins DiscoverX

kinome (kinase panel) [17] = target: T18, kinome (kinase panel) (Homo sapiens, UniProt Q05655); test: KINOMEscan assay (Eurofins DiscoverX); assay type: binding; settings: PRKCD; 1000 nM; read-out: Percent Control
T18 construct: purchased Eurofins DiscoverX

kinome (kinase panel) [18] = target: T19, kinome (kinase panel) (Homo sapiens, UniProt Q15418); test: KINOMEscan assay (Eurofins DiscoverX); assay type: binding; settings: 1000 nM, read-out: Percent Control
T19 construct: purchased Eurofins DiscoverX

kinome (kinase panel) [19] = target: T20, kinome (kinase panel) (Homo sapiens, UniProt Q16584); test: KINOMEscan assay (Eurofins DiscoverX); assay type: binding; settings: MLK3 (Entrez MAP3K11); 1000 nM; read-out: Percent Control
T20 construct: purchased Eurofins DiscoverX

kinome (kinase panel) [20] = target: T21, kinome (kinase panel) (Homo sapiens, UniProt Q6P2M8); test: KINOMEscan assay (Eurofins DiscoverX); assay type: binding; settings: CAMK1B (Entrez PNCK); 1000 nM; read-out: Percent Control
T21 construct: purchased Eurofins DiscoverX

kinome (kinase panel) [21] = target: T22, kinome (kinase panel) (Homo sapiens, UniProt Q8N752); test: KINOMEscan assay (Eurofins DiscoverX); assay type: binding; settings: CSNK1A1L; 1000 nM; read-out: Percent Control
T22 construct: purchased Eurofins DiscoverX

kinome (kinase panel) [22] = target: T23, kinome (kinase panel) (Homo sapiens, UniProt Q96Q40); test: KINOMEscan assay (Eurofins DiscoverX); assay type: binding; settings: PFTAIRE2 (Entrez CDK15); 1000 nM; read-out: Percent Control
T23 construct: purchased Eurofins DiscoverX

kinome (kinase panel) [23] = target: T24, kinome (kinase panel) (Homo sapiens, UniProt Q9BRS2); test: KINOMEscan assay (Eurofins DiscoverX); assay type: binding; settings: RIOK1; 1000 nM; read-out: Percent Control
T24 construct: purchased Eurofins DiscoverX

kinome (kinase panel) [24] = target: T25, kinome (kinase panel) (Homo sapiens, UniProt Q9H093); test: KINOMEscan assay (Eurofins DiscoverX); assay type: binding; settings: SNARK (NUAK2); 1000 nM; read-out: Percent Control
T25 construct: purchased Eurofins DiscoverX

kinome (kinase panel) [25] = target: T26, kinome (kinase panel) (Homo sapiens, UniProt Q9H2X6); test: KINOMEscan assay (Eurofins DiscoverX); assay type: binding; settings: HIPK2; 1000 nM; read-out: Percent Control
T26 construct: purchased Eurofins DiscoverX

kinome (kinase panel) [26] = target: T27, kinome (kinase panel) (Homo sapiens, UniProt Q9NWZ3); test: KINOMEscan assay (Eurofins DiscoverX); assay type: binding; settings: IRAK4; 1000 nM; read-out: Percent Control
T27 construct: purchased Eurofins DiscoverX

kinome (kinase panel) [27] = target: T28, kinome (kinase panel) (Homo sapiens, UniProt Q9P286); test: KINOMEscan assay (Eurofins DiscoverX); assay type: binding; settings: PAK7; 1000 nM; read-out: Percent Control
T28 construct: purchased Eurofins DiscoverX

kinome (kinase panel) [28] = target: T29, kinome (kinase panel) (Homo sapiens, UniProt Q9P2K8, S808G); test: KINOMEscan assay (Eurofins DiscoverX); assay type: binding; settings: read-out: Percent Control
T29 construct: purchased Eurofins DiscoverX

T5 sequence (O75676 whole entry): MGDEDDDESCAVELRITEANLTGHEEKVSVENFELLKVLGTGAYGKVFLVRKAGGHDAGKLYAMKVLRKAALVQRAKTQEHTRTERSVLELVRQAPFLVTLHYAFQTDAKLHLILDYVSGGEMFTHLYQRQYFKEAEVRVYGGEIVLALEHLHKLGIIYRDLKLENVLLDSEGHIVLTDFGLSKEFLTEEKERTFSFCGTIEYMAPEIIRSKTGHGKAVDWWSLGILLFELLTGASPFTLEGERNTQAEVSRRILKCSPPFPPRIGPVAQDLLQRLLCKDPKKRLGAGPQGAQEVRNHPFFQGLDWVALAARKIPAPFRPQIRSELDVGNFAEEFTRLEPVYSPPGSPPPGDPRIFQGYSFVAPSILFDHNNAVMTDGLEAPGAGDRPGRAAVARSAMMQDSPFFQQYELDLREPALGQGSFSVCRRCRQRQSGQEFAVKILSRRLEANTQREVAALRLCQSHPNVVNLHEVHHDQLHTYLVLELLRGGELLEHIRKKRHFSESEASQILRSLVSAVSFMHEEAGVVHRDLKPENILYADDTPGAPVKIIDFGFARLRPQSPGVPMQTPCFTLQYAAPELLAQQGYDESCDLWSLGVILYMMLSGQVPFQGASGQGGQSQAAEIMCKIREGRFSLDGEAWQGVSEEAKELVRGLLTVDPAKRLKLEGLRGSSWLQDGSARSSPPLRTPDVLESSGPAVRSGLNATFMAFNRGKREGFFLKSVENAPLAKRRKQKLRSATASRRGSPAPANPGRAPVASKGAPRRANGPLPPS
T19 sequence (Q15418 whole entry): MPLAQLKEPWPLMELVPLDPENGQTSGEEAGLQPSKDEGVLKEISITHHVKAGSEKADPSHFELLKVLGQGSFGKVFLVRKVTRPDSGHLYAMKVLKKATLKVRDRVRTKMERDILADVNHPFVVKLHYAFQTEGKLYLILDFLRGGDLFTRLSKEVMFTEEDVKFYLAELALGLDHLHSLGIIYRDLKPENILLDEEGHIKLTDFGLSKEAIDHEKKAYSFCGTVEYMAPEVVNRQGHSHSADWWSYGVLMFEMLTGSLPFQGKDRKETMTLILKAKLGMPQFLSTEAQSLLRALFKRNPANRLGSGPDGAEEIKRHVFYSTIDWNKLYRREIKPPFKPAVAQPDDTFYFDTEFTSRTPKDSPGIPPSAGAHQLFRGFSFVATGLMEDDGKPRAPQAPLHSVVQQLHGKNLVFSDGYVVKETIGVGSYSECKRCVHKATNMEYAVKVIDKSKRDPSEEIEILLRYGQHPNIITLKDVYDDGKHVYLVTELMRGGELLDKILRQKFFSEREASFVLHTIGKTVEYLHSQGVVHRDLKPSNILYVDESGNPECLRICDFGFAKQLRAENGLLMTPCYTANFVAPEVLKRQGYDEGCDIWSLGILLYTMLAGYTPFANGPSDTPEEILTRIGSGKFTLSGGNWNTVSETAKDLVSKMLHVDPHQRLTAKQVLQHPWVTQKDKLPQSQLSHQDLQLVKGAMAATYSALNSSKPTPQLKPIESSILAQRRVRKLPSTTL
T13 sequence (P48730 whole entry): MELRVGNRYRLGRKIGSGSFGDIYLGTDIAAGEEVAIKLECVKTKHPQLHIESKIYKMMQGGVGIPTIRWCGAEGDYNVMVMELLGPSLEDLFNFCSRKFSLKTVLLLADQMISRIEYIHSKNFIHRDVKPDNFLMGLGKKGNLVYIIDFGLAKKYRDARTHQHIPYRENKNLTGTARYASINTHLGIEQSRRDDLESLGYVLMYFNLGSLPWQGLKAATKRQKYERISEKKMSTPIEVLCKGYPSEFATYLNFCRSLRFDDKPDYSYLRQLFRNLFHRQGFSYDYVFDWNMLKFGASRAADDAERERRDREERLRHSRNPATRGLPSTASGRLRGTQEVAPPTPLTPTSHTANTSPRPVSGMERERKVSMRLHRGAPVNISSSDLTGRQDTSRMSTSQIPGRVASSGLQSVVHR
T6 sequence (P00519 whole entry E255K): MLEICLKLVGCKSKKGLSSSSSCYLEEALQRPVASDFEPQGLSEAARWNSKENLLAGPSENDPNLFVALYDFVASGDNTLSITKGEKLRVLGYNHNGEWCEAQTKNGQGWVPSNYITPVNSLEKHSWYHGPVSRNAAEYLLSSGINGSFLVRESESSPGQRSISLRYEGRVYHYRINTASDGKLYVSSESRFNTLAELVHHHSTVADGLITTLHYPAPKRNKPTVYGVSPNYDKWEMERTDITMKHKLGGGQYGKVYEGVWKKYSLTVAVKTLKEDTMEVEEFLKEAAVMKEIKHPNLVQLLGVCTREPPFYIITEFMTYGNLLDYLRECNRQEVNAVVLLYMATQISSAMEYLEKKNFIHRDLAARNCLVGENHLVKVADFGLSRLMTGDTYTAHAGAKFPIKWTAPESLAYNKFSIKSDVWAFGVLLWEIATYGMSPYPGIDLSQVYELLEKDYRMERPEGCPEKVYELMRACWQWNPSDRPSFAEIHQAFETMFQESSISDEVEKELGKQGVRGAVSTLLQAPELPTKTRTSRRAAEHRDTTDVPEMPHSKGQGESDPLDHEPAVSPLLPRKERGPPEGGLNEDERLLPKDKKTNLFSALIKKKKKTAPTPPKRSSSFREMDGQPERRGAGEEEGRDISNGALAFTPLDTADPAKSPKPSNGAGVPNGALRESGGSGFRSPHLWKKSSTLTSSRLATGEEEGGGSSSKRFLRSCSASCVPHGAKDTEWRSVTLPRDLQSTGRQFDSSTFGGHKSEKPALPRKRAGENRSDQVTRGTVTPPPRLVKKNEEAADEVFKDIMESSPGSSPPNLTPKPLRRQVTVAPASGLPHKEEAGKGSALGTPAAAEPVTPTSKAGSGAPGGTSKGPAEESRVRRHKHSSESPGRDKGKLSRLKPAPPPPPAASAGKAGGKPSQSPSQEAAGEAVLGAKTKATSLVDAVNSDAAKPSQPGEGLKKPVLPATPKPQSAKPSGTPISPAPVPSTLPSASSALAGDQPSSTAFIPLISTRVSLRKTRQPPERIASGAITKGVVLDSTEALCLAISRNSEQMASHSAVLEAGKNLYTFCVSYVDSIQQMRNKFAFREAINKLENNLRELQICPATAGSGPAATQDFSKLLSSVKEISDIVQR
T2 sequence (O15197 32-1021): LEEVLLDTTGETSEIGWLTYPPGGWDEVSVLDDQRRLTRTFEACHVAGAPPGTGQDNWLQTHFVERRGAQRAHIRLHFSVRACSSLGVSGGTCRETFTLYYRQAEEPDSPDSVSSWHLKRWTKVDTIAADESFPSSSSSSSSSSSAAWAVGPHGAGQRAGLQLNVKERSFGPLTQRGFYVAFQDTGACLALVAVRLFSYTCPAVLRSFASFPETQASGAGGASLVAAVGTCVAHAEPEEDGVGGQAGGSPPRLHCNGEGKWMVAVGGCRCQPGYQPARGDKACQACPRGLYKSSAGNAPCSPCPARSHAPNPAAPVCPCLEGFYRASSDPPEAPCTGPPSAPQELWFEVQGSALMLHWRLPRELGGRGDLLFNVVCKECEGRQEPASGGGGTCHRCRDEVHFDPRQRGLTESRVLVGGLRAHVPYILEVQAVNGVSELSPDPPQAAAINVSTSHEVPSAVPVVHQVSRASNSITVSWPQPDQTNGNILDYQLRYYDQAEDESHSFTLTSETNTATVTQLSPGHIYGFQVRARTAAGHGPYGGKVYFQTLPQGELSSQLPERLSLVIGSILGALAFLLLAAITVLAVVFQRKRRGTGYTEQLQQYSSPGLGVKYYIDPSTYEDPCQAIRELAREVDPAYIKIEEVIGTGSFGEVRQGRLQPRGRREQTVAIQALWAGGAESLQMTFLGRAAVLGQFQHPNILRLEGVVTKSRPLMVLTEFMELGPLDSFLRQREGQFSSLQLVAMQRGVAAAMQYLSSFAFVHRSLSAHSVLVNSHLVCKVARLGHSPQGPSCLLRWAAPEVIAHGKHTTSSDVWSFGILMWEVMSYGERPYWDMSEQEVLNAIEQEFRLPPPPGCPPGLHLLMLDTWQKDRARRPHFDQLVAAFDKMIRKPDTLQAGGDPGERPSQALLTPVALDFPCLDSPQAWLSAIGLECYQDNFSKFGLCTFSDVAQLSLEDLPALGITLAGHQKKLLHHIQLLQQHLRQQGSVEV
T24 sequence (Q9BRS2 whole entry): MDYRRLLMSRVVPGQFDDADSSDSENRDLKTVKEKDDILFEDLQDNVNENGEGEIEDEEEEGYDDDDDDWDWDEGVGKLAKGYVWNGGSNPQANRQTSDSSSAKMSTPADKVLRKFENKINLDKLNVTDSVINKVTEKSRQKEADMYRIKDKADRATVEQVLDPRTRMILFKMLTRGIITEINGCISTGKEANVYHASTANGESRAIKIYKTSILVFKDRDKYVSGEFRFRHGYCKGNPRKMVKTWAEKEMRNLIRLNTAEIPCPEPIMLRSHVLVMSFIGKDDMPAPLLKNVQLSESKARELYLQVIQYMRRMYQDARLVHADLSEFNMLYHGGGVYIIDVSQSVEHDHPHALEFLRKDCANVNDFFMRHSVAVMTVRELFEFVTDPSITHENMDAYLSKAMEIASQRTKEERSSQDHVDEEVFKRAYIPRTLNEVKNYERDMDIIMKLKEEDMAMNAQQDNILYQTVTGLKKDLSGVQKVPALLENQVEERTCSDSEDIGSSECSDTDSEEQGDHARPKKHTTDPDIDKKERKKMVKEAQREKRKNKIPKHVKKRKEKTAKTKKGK
T27 sequence (Q9NWZ3 whole entry): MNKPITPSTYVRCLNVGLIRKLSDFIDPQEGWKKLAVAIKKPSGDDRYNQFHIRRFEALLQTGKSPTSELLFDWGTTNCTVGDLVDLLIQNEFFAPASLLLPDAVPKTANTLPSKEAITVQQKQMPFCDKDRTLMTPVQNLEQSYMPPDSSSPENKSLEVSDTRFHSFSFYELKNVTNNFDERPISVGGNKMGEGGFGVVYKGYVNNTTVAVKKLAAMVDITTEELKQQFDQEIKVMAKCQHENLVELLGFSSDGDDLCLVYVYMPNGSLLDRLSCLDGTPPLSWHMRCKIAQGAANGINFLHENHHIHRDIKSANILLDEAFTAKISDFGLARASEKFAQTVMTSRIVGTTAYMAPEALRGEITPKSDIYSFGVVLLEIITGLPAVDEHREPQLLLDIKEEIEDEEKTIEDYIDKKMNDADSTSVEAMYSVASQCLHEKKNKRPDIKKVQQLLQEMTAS

Work on `CN(C)C(=O)c1cc2cnc(Nc3ccc(-c4csc5c(=O)cc(N6CCOCC6)oc45)cc3)nc2n1C1CCCC1` [SRX3177] yielded an IC50 (PI3Kγ) of 3.18 µM, a remaining binding at 1 µM (kinome (kinase panel) [1]) of 4.9% and a remaining binding at 1 µM (kinome (kinase panel) [2]) of 97%. The remaining binding at 1 µM (kinome (kinase panel) [3]) was 90%, the remaining binding at 1 µM (kinome (kinase panel) [4]; RPS6KA4(Kin.Dom.1-N-terminal)) was 100% and the remaining binding at 1 µM (kinome (kinase panel) [4]; RPS6KA4(Kin.Dom.2-C-terminal)) was 55%. For the same compound, the remaining binding at 1 µM (kinome (kinase panel) [5]) was 59%, the remaining binding at 1 µM (kinome (kinase panel) [6]) was 79% and the remaining binding at 1 µM (kinome (kinase panel) [7]) was 96%. For the same compound, the remaining binding at 1 µM (kinome (kinase panel) [8]) was 72%, the remaining binding at 1 µM (kinome (kinase panel) [9]; FLT3-autoinhibited) was 63% and the remaining binding at 1 µM (kinome (kinase panel) [9]; FLT3) was 26%. The remaining binding at 1 µM (kinome (kinase panel) [10]) was 8.9%, the remaining binding at 1 µM (kinome (kinase panel) [11]) was 93% and the remaining binding at 1 µM (kinome (kinase panel) [12]) was 83%. For the same compound, the remaining binding at 1 µM (kinome (kinase panel) [13]) was 2.4%, the remaining binding at 1 µM (kinome (kinase panel) [14]) was 98% and the remaining binding at 1 µM (kinome (kinase panel) [15]) was 94%. It also gave a remaining binding at 1 µM (kinome (kinase panel) [16]) of 77%, a remaining binding at 1 µM (kinome (kinase panel) [17]) of 86% and a remaining binding at 1 µM (kinome (kinase panel) [18]; RSK1(Kin.Dom.1-N-terminal) (RPS6KA1)) of 100%. For the same compound, the remaining binding at 1 µM (kinome (kinase panel) [18]; RSK1(Kin.Dom.2-C-terminal) (RPS6KA1)) was 100%, the remaining binding at 1 µM (kinome (kinase panel) [19]) was 73% and the remaining binding at 1 µM (kinome (kinase panel) [20]) was 41%. It also gave a remaining binding at 1 µM (kinome (kinase panel) [21]) of 100%, a remaining binding at 1 µM (kinome (kinase panel) [22]) of 90% and a remaining binding at 1 µM (kinome (kinase panel) [23]) of 18%. The remaining binding at 1 µM (kinome (kinase panel) [24]) was 70%, the remaining binding at 1 µM (kinome (kinase panel) [25]) was 76% and the remaining binding at 1 µM (kinome (kinase panel) [26]) was 45%. The remaining binding at 1 µM (kinome (kinase panel) [27]) was 89% and the remaining binding at 1 µM (kinome (kinase panel) [28]) was 71%.
